According to US20220354963A1, “EXTRACELLULAR VESICLE LINKED TO MOLECULES AND USES THEREOF” (Codiak BioSciences, Inc., priority 2019, published 2022):

What was measured:
GAPDH = GAPDH inhibition in PANC-1 cells, same assay; type: cell-based, human; details: 2 point DR data
Description: (§1) The PANC-1 cells were grown in cell culture media and seeded onto a 96 well plate at a density of 20,000 cells/well. ASOs were tested in two separate cohorts: 2 doses or 5 doses were given to the PANC-1 cells (See TABLE 3) at final concentrations of 20 nM and 2 nM, respectively. The assay used Lipofectamine2000 transfection and a 48 hr treatment cycle, with incubation at 37° C. and 5% C02. Analysis of the mRNA expression was then carried out using a branched DNA assay.

STAT3 mRNA [1] = assay: STAT3 mRNA expression in IL-6 stimulated PANC-1 cells, branched DNA assay; type: cell-based, human; details: 5 point DR data
STAT3 mRNA [2] = assay: as above; type: cell-based, human; details: for STAT3 Inhibition 2 nM / STAT3 Inhibition 20 nM: 2 point DR data; for IC50: 5 point DR data, Lipofectamine2000 transfection, 48 hr, read-out: STAT3 PANC1 IC50 Prism
Description: as §1, with “The ASOs of the present disclosure were tested for their ability to reduce STAT3 mRNA expression in IL-6 stimulated PANC-1 cells. The PANC-1” for “The PANC-1”

IL-1β = assay: In vivo peritonitis model, intraperitoneal LPS challenge, serum IL-1β; design: species or system mouse; details: pre-treatment intraperitoneally 1 hour prior to challenge; 3 hours post-challenge
Description: Intraperitoneal LPS challenge induces the production of IL-1β in mice, which can be detected in the systemic circulation 3 hours post-challenge.

142 (GGCAGCAGCTCATGATCAGG; chemistry not given here) [compound 142]
GAPDH Inhibition 20 nM (GAPDH): 9.00
STAT3 Max inihibition 24 nM (STAT3 mRNA [1]): 76.10
STAT3 Inhibition 2 nM (STAT3 mRNA [2]): 51.7
STAT3 Inhibition 20 nM (STAT3 mRNA [2]): 80.0
IC50 (STAT3 mRNA [2]): 6.76 nM

145 (GTCCTATGTGCTCGTCAAAG; chemistry not given here) [compound 145]
GAPDH Inhibition 20 nM (GAPDH): 17.00
STAT3 Max inihibition 24 nM (STAT3 mRNA [1]): 85.73
STAT3 Inhibition 2 nM (STAT3 mRNA [2]): 50.2
STAT3 Inhibition 20 nM (STAT3 mRNA [2]): 89.2
IC50 (STAT3 mRNA [2]): 3.06 nM

CC(C)(O)c1coc(S(=O)(=O)NC(=O)Nc2c3c(cc4c2CCC4)CCC3)c1 [MCC950]
induction of IL-1β in the serum of LPS-challenged mice (IL-1β): inhibited
